According to US20120010075A1 (priority 2009, published 2012):
Read-outs that look alike come from different tables or passages of the source.

Assays:
[1] = system: Leptosphaeria nodorum (LEPTNO); assay: In vitro fungitoxicity of hydrazones with and without copper towards Leptosphaeria nodorum (Example 26); format: cell-based; settings: for inhibition of growth at 0.05 µg/mL: Parastagonospora nodorum, 72 h, read-out: LEPTNO % Inhn. Minus Copper Observed
[2] = system: Phytophthora infestans; format: in vivo, Phytophthora infestans on tomato; settings: applied 24 h before inoculation, assessed 7 days after inoculation
[3] = compound 0.05 μg/mL, copper-minus medium, 72 h at 25° C.
[4] = compound 0.05 μg/mL, copper-plus medium (CuCl2.2H2O), 72 h at 25° C.
[5] = hydrazone 50 ppm + 50 μM CuCl2.2H2O, tomato
[6] = copper-minus medium, test compound Concn. 0.05 μg/mL, 72 h at 25° C.
[7] = copper-plus medium (CuCl2 10 μM), test compound Concn. 0.05 μg/mL, 72 h at 25° C.
[8] = hydrazone 50 ppm with 50 μM CuCl2.2H2O, tomato late blight

Compound | inhibition of growth at 0.05 µg/mL [1, 3] [%] | LEPTNO % Inhn. Plus Copper Observed [1, 4] [%] | TLB % Control [2, 5] [%] | inhibition of growth at 0.05 µg/mL [1, 6] [%] | LEPTNO % Inhn. Plus Copper Observed [1, 7] [%] | TLB % Control [2, 8] [%] | inhibition of growth at 0.05 µg/mL [1] [%]
COc1cc(Br)cc(/C=N/NC(=O)c2ccc(C)cc2)c1O [Example 206] | 16.4 | 98.4 | 80.7 |  |  |  | 
C/C(=N\NC(=O)c1ccccc1Br)c1ccccc1O [Example 64] | 0 | 97.8 | 43.0 |  |  |  | 
O=C(N/N=C/c1cc(Br)ccc1O)c1ccc(Cl)cc1 [Example 171] | 4 | 98.3 | 15.8 |  |  |  | 
COc1cc([N+](=O)[O-])cc(/C=N/NC(=O)c2ccccc2)c1O [Example 155] | 1.9 | 78.3 | 32.0 |  |  |  | 
Cc1cccc(C(=O)N/N=C/c2cc(Br)cc(Br)c2O)c1 [Example 115] | 6.1 | 97.4 | 78.2 |  |  |  | 
Cc1ccccc1C(=O)N/N=C/c1cc(Br)ccc1O [Example 158] | 6.2 | 96.9 | 84.7 |  |  |  | 
Cc1cccc(C(=O)N/N=C/c2ccccc2O)c1 [Example 174] | 0 | 97.0 | 72.7 |  |  |  | 
O=C(N/N=C/c1cc(Cl)cc(Cl)c1O)c1ccccc1Cl [Example 93] | 6 | 95.2 | 77.2 |  |  |  | 
CN(C)c1ccc(C(=O)N/N=C/c2cc(Cl)cc(Cl)c2O)cc1 [Example 103] | 17.9 | 98.1 | 63.2 |  |  |  | 
COc1cc(OC)cc(C(=O)N/N=C/c2cc(Cl)cc(Cl)c2O)c1 [Example 88] | 10.7 | 96.7 | 4.8 |  |  |  | 
O=C(N/N=C/c1cc(Cl)cc(Cl)c1O)c1ccccc1Oc1ccccc1 [Example 90] | 9.5 | 96.4 | 54.6 |  |  |  | 
Cc1ccc([N+](=O)[O-])c(C(=O)N/N=C/c2cc(Cl)cc(Cl)c2O)c1 [Example 9] | 0 | 93.6 | 67.3 |  |  |  | 
COc1cc(Br)cc(/C=N/NC(=O)c2cccc(Cl)c2)c1O [Example 203] | 6.9 | 95.7 | 56.4 |  |  |  | 
Cc1ccc(C(=O)N/N=C/c2cc(Cl)ccc2O)cc1 [Example 180] | 10.8 | 95.1 | 43.9 |  |  |  | 
C/C(=N\NC(=O)c1ccccc1O)c1cc(C(F)(F)F)ccc1O [Example 538] |  |  |  | 12.4 | 96.5 | 44.0 | 
O=C(N/N=C/c1cc(Cl)cc(Br)c1O)c1cccc(Cl)c1 [Example 192] | 7.8 | 94.7 | 84.2 |  |  |  | 
C/C(=N\NC(=O)c1ccc(Cl)cc1Cl)c1ccccc1O [Example 216] | 6.3 | 98.4 | 57.9 |  |  |  | 
COc1cccc(C(=O)N/N=C/c2cc(Br)ccc2O)c1 [Example 185] | 0 | 95.2 | 54.6 |  |  |  | 
O=C(N/N=C/c1c(O)ccc2ccccc12)c1ccccc1 [Example 4] | 4.4 | 94.5 | 67.8 |  |  |  | 
O=C(N/N=C/c1ccc(Cl)cc1O)c1cccc(Cl)c1 [Example 391] |  |  |  | 6 | 96.9 | 92.0 | 
CC(C)(C)c1ccc(C(=O)N/N=C/c2cc(Cl)cc(Cl)c2O)cc1 [Example 87] | 8.1 | 98.6 | 69.5 |  |  |  | 

Compound | inhibition of growth at 0.05 µg/mL [1, 3] [%] | LEPTNO % Inhn. Plus Copper Observed [1, 4] [%] | TLB % Control [2, 5] [%] | inhibition of growth at 0.05 µg/mL [1, 6] [%] | LEPTNO % Inhn. Plus Copper Observed [1, 7] [%] | TLB % Control [2, 8] [%] | inhibition of growth at 0.05 µg/mL [1] [%]
C/C(=N\NC(=O)c1ccc(C(F)(F)F)cc1)c1ccccc1O [Example 11] | 0.3 | 97.2 | 42.1 |  |  |  | 
O=C(N/N=C/c1cc([N+](=O)[O-])cc(Br)c1O)c1ccccc1 [Example 153] | 0 | 97.0 | 34.6 |  |  |  | 
O=C(N/N=C/c1cc(Br)ccc1O)c1ccccc1Cl [Example 170] | 0 | 94.5 | 65.5 |  |  |  | 
O=C(N/N=C/c1cc(Cl)cc(Cl)c1O)c1ccc(Br)cc1 [Example 80] | 0 | 98.4 | 91.5 |  |  |  | 
C/C(=N\NC(=O)c1ccc(C(C)(C)C)cc1)c1ccccc1O [Example 55] | 0 | 95.5 | 43.9 |  |  |  | 
O=C(N/N=C/c1cc(Cl)cc(Cl)c1O)c1ccc(F)cc1 [Example 22] | 16 | 97.6 | 93.2 |  |  |  | 
C/C(=N\NC(=O)c1cc(C)cc(C)c1)c1ccccc1O [Example 39] | 1.3 | 97.9 | 18.6 |  |  |  | 
O=C(N/N=C/c1cc(Br)ccc1O)c1ccccc1Br [Example 160] | 3.4 | 96.1 | 65.5 |  |  |  | 
C/C(=N\NC(=O)c1cccc(C)c1)c1ccccc1O [Example 38] | 2.4 | 98.3 | 17.0 |  |  |  | 
O=C(N/N=C/c1cc(Br)cc(Br)c1O)c1ccccc1Cl [Example 112] | 8.1 | 97.8 | 78.2 |  |  |  | 
O=C(N/N=C/c1ccccc1O)c1ccc(Cl)cc1 [Example 2] | 0 | 95.1 | 61.4 |  |  |  | 
C/C(=N\NC(=O)c1ccccc1)c1cc(Cl)ccc1O [Example 504] |  |  |  | 1.3 | 97.6 | 94.0 | 
COc1cccc(/C=N/NC(=O)c2ccccc2)c1O [Example 149] | 0 | 97.1 | 22.1 |  |  |  | 
C/C(=N\NC(=O)c1cccc(Br)c1)c1ccccc1O [Example 63] | 0 | 96.7 | 40.4 |  |  |  | 
COc1ccc(C(=O)N/N=C/c2cc(Cl)cc(Cl)c2O)cc1 [Example 75] | 0 | 98.4 | 15.8 |  |  |  | 
O=C(N/N=C/c1ccccc1O)c1cccc(Cl)c1 [Example 175] | 4.9 | 97.9 | 80.0 |  |  |  | 
O=C(N/N=C/c1cc(Cl)ccc1O)c1ccc(Br)cc1 [Example 191] | 15.4 | 98.1 | 29.8 |  |  |  | 
O=C(N/N=C/c1cc(Cl)ccc1O)c1ccc(C(F)(F)F)cc1 [Example 187] |  | 97.5 | 92.7 |  |  |  | 20.7
C/C(=N\NC(=O)c1ccc(F)cc1)c1ccccc1O [Example 62] | 0 | 96.3 | 56.1 |  |  |  | 
CC/C(=N\NC(=O)c1ccccc1Cl)c1ccccc1O [Example 50] | 3.5 | 97.4 | 43.5 |  |  |  | 
